Assays:
BCL2 D103Y = BCL2 D103Y (Homo sapiens, UniProt P10415, D103Y); experiment: TR-FRET competitive binding assay, BCL2 D103Y; details: Ki determined from IC50, read-out: TR_FRET EKI_Bcl2 D103Y
Outline: (§1)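 Ki derived from IC50 (11-point dilution, 520/495 nm emission ratio) for displacing a fluorescein-labelled PUMA peptide (2 or 20 nM). Target was 0.5 nM E. coli-expressed Halo-tagged BCL2 (1-207) or BCLXL (2-196), terbium-labelled on Halo. Incubation 2 h at 23°C in pH 7.5 Hepes with 150 mM NaCl and 5% DMSO.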

KMS-12-PE Bcl-2 WT = experiment: In vitro cytotoxicity CellTiter-Glo 48 h, KMS-12-PE Bcl-2 WT; type: cell-based; details: Homo sapiens, KMS-12-PE, C50 = concentration needed to reach 50% of the cellular viability
Outline: (§2)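 KMS-12-PE myeloma cells were lentivirally transduced with wild-type or G101V-mutant Bcl-2 and sorted by TagRFP. They were exposed to compounds as 11-point dose responses for 48 h at 37 °C, 5% CO2. Viability was read by CellTiter-Glo ATP luminescence, and C50 was the concentration giving 50% viability.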

KMS-12-PE Bcl-2 G101V = experiment: In vitro cytotoxicity CellTiter-Glo 48 h, KMS-12-PE Bcl-2 G101V; type: cell-based; details: for Ratio (G101V/WT): C50 KMS-12-PE Bcl-2 G101V over C50 KMS-12-PE Bcl-2 WT; for IC50: Homo sapiens, KMS-12-PE, 48 h, CellTiter-Glo, C50 = concentration needed to reach 50% of the cellular viability
Outline: as §2

BCL2 G101V [1] = molecular target: BCL2 G101V (Homo sapiens, UniProt P10415, G101V); experiment: TR-FRET competitive binding assay, BCL2 G101V; details: BCL2 G101V; Ki determined from IC50; read-out: TR_FRET EKI_Bcl2 G101V
Outline: as §1

BCL2 G101V [2] = experiment: TR-FRET competitive binding assay, BCL2 G101V; set-up: species or system human; details: ratio Ki BCL2 G101V / Ki BCL2 WT
Outline: as §1

BCL2 WT = BCL2 WT (Homo sapiens (Human), UniProt P10415); experiment: TR-FRET competitive binding assay, BCL2 WT; details: Ki determined from IC50, read-out: TR_FRET EKI_Bcl2 WT
Outline: as §1

BCLXL WT = BCLXL WT (Homo sapiens (Human), UniProt Q07817); experiment: TR-FRET competitive binding assay, BCLXL WT; details: for Ki: BCLXL WT, Ki determined from IC50, read-out: TR_FRET EKI BclxL; for TR_FRET EKI BCLxL/WT selectivty ratio: ratio Ki BCLxL / Ki BCL2 WT
Outline: as §1

Sequence of BCLXL WT (Q07817 other isoform, or with tags, fused parts or gaps): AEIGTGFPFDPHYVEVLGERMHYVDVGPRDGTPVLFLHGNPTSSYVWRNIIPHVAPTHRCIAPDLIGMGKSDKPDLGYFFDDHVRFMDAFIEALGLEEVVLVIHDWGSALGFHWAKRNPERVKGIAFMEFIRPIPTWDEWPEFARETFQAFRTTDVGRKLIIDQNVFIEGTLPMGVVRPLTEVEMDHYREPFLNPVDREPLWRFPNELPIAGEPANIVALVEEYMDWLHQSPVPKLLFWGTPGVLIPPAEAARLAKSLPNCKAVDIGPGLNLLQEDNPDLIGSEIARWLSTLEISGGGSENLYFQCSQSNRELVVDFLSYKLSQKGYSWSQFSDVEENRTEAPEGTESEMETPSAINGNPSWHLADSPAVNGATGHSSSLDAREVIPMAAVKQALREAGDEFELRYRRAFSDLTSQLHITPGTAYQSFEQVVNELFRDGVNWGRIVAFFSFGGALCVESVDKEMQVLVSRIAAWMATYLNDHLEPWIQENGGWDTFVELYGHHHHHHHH

SMILES | Ki (BCL2 D103Y) | IC50 (KMS-12-PE Bcl-2 WT) | Ratio (G101V/WT) (KMS-12-PE Bcl-2 G101V) | IC50 (KMS-12-PE Bcl-2 G101V) | Ki (BCL2 G101V [1]) | TR_FRET EKI G101V/WT selectivty ratio (BCL2 G101V [2]) | Ki (BCL2 WT) | Ki (BCLXL WT) | TR_FRET EKI BCLxL/WT selectivty ratio (BCLXL WT)
Cc1c(N(C(=O)c2cc(-c3cc4c(cc3C(=O)N3Cc5ccccc5C[C@H]3CN3CCCCC3)CN(C(=O)Cc3ccc(COCC5CCOCC5)cc3)CC4)n(C)c2C)c2ccc(O)cc2)cc(C#N)n1C [Example 149, N-(5-cyano-1,2-dimethyl-1H-pyrrol-3-yl)-N-(4-hydroxyphenyl)-1,2-dimethyl-5-{2-[2-(4-{[(oxan-4-yl)methoxy]methyl}phenyl)acetyl]-7-[(3S)-3-[(piperidin-1-yl)methyl]-1,2,3,4-tetrahydroisoquinoline-2-carbonyl]-1,2,3,4-tetrahydroisoquinolin-6-yl}-1H-pyrrole-3-carboxamide] | 0.23 nM | 0.0239 µM | 10.921 | 0.261 µM | 1.1 nM | 11.2 | 0.1 nM | 1.9 nM | 19.4
Cc1c(N(C(=O)c2cc(-c3cc4c(cc3C(=O)N3Cc5ccccc5C[C@H]3CN3CCCCC3)CN(C(=O)Cc3ccc(OCCN5CCO[C@@H](C)C5)cc3)CC4)n(C)c2C)c2ccc(O)cc2)cc(C#N)n1C [Example 150, N-(5-cyano-1,2-dimethyl-1H-pyrrol-3-yl)-N-(4-hydroxyphenyl)-1,2-dimethyl-5-[2-(2-{4-[2-((2S)-2-methylmorpholin-4-yl)ethoxy]phenyl}acetyl)-7-[(3S)-3-[(piperidin-1-yl)methyl]-1,2,3,4-tetrahydroisoquinoline-2-carbonyl]-1,2,3,4-tetrahydroisoquinolin-6-yl]-1H-pyrrole-3-carboxamide] | 0.08 nM | 0.011 µM | 5.2636 | 0.0579 µM | 0.2 nM | 6.2 | 0.04 nM | 2.6 nM | 70.3
Cc1c(N(C(=O)c2cc(-c3cc4c(cc3C(=O)N3Cc5ccccc5C[C@H]3CN3CCCCC3)CN(C(=O)Cc3ccc(OCCN5CCO[C@H](C)C5)cc3)CC4)n(C)c2C)c2ccc(O)cc2)cc(C#N)n1C [Example 151, N-(5-cyano-1,2-dimethyl-1H-pyrrol-3-yl)-N-(4-hydroxyphenyl)-1,2-dimethyl-5-[2-(2-{4-[2-((2R)-2-methylmorpholin-4-yl)ethoxy]phenyl}acetyl)-7-[(3S)-3-[(piperidin-1-yl)methyl]-1,2,3,4-tetrahydroisoquinoline-2-carbonyl]-1,2,3,4-tetrahydroisoquinolin-6-yl]-1H-pyrrole-3-carboxamide] | 0.1 nM | 0.0105 µM | 6.0476 | 0.0635 µM | 0.3 nM | 6.4 | 0.05 nM | 2.7 nM | 57.4
Cc1c(N(C(=O)c2cc(-c3cc4c(cc3C(=O)N3Cc5ccccc5C[C@H]3CN3CCC[C@H](C)C3)CN(C(=O)Cc3ccc(OCCN5CCOCC5)cc3)CC4)n(C)c2C)c2ccc(O)cc2)cc(C#N)n1C [Example 153, N-(5-cyano-1,2-dimethyl-pyrrol-3-yl)-N-(4-hydroxyphenyl)-1,2-dimethyl-5-[7-[(3S)-3-[[(3S)-3-methyl-1-piperidyl]methyl]-3,4-dihydro-1H-isoquinoline-2-carbonyl]-2-[2-[4-(2-morpholinoethoxy)phenyl]acetyl]-3,4-dihydro-1H-isoquinolin-6-yl]pyrrole-3-carboxamide] | 0.38 nM | 0.0095 µM | 5.3741 | 0.051 µM | 0.4 nM | 3.5 | 0.13 nM | 5.2 nM | 41.6
Cc1c(N(C(=O)c2cc(-c3cc4c(cc3C(=O)N3Cc5ccccc5C[C@H]3CN3CCCC3)CN(C(=O)Cc3ccc(OCCN5CCN(CC(F)F)CC5)cc3)CC4)n(C)c2C)c2ccc(O)cc2)cc(C#N)n1C [Example 154, N-(5-cyano-1,2-dimethylpyrrol-3-yl)-5-{2-[2-(4-{2-[4-(2,2-difluoroethyl)piperazin-1-yl]ethoxy}phenyl)acetyl]-7-{[(3S)-3-(pyrrolidin-1-ylmethyl)-3,4-dihydro-1H-isoquinolin-2-yl]carbonyl}-3,4-dihydro-1H-isoquinolin-6-yl}-N-(4-hydroxyphenyl)-1,2-dimethylpyrrole-3-carboxamide] | 0.14 nM | 0.067 µM | 3.9552 | 0.265 µM | 0.3 nM | 8.4 | 0.04 nM | 4.1 nM | 110.8
CCN(C[C@@H]1Cc2ccccc2CN1C(=O)c1cc2c(cc1-c1cc(C(=O)N(c3ccc(O)cc3)c3cc(C#N)n(C)c3C)c(C)n1C)CCN(C(=O)Cc1ccc(OCCN3CCOCC3)cc1F)C2)C(C)C [Example 155, N-(5-cyano-1,2-dimethylpyrrol-3-yl)-5-(7-{[(3S)-3-{[ethyl(isopropyl)amino]methyl}-3,4-dihydro-1H-isoquinolin-2-yl]carbonyl}-2-(2-{2-fluoro-4-[2-(morpholin-4-yl)ethoxy]phenyl}acetyl)-3,4-dihydro-1H-isoquinolin-6-yl)-N-(4-hydroxyphenyl)-1,2-dimethylpyrrole-3-carboxamide] | 0.11 nM | 0.0105 µM | 8.0857 | 0.0849 µM | 0.4 nM | 8.8 | 0.04 nM | 1.7 nM | 39.5
Cc1c(N(C(=O)c2cc(-c3cc4c(cc3C(=O)N3Cc5ccccc5C[C@H]3CN3CC[C@@H](C)C3)CN(C(=O)Cc3ccc(OCCN5CCOCC5)cc3F)CC4)n(C)c2C)c2ccc(O)cc2)cc(C#N)n1C [Example 156, N-(5-cyano-1,2-dimethylpyrrol-3-yl)-5-[2-(2-{2-fluoro-4-[2-(morpholin-4-yl)ethoxy]phenyl}acetyl)-7-{[(3S)-3-{[(3R)-3-methylpyrrolidin-1-yl]methyl}-3,4-dihydro-1H-isoquinolin-2-yl]carbonyl}-3,4-dihydro-1H-isoquinolin-6-yl]-N-(4-hydroxyphenyl)-1,2-dimethylpyrrole-3-carboxamide] | 0.1 nM | 0.0154 µM | 5.2662 | 0.0811 µM | 0.2 nM | 4.0 | 0.05 nM | 2.7 nM | 50.9
Cc1c(N(C(=O)c2cc(-c3cc4c(cc3C(=O)N3Cc5ccccc5C[C@H]3CN3CC[C@H](C)C3)CN(C(=O)Cc3ccc(OCCN5CCOCC5)cc3F)CC4)n(C)c2C)c2ccc(O)cc2)cc(C#N)n1C [Example 157, N-(5-cyano-1,2-dimethylpyrrol-3-yl)-5-[2-(2-{2-fluoro-4-[2-(morpholin-4-yl)ethoxy]phenyl}acetyl)-7-{[(3S)-3-{[(3S)-3-methylpyrrolidin-1-yl]methyl}-3,4-dihydro-1H-isoquinolin-2-yl]carbonyl}-3,4-dihydro-1H-isoquinolin-6-yl]-N-(4-hydroxyphenyl)-1,2-dimethylpyrrole-3-carboxamide] | 0.09 nM | 0.0171 µM | 5.5848 | 0.0955 µM | 0.3 nM | 7.7 | 0.04 nM | 2 nM | 45.5
Cc1c(C(=O)N(c2ccc(O)cc2)c2cc(C#N)n(C(F)F)c2C)cc(-c2cc3c(cc2C(=O)N2Cc4ccccc4C[C@H]2CN2CCCCC2)CN(C(=O)Cc2ccc(OCCN4CCC(F)CC4)cc2F)CC3)n1C [Example 158] | 0.47 nM | 0.0068 µM | 8.0412 | 0.0546 µM | 0.9 nM | 9.4 | 0.1 nM | 5.4 nM | 54.0
Cc1c(C(=O)N(c2ccc(O)cc2)c2cc(C#N)n(C(F)F)c2C)cc(-c2cc3c(cc2C(=O)N2Cc4ccccc4C[C@H]2CN2CCCCC2)CN(C(=O)Cc2ccc(OCCN4CCN(CCF)CC4)cc2F)CC3)n1C [Example 159, N-[5-cyano-1-(difluoromethyl)-2-methylpyrrol-3-yl]-5-{2-[2-(2-fluoro-4-{2-[4-(2-fluoroethyl)piperazin-1-yl]ethoxy}phenyl)acetyl]-7-{[(3S)-3-(piperidin-1-ylmethyl)-3,4-dihydro-1H-isoquinolin-2-yl]carbonyl}-3,4-dihydro-1H-isoquinolin-6-yl}-N-(4-hydroxyphenyl)-1,2-dimethylpyrrole-3-carboxamide] | 0.13 nM | 0.0079 µM | 4.9873 | 0.0392 µM | 0.3 nM | 5.1 | 0.05 nM | 3.7 nM | 69.8
